Paper PMC4163382, “Symbiotic Plant Peptides Eliminate Candida albicans Both In Vitro and in an Epithelial Infection Model and Inhibit the Proliferation of Immortalized Human Cells” (BioMed Research International, 2014)
Ends that are not written are not given here. Peptide text beside a SMILES is read from it.

Experiments:
C. albicans WO-1 = assay type: cell-based, Candida albicans; conditions: for Minimal fungicidal concentration, 3 h: WO-1, 3 h; for Minimal fungicidal concentration, 24 h: WO-1, 24 h
Method: (§1) The antifungal activity of the NCR peptides against C. albicans strains and other Candida species was determined in vitro using 96-well flat bottom microtiter plates (Sarstedt). Fifty microliters of dilutions from each peptide (final concentrations in the assays ranged from 2.5 to 100 μg/mL) was added to 50 μL of 10^4 cells mL^−1 and 10^5 cells mL^−1 in LSM. The plates were incubated at 30°C and the peptide concentrations that prevented the germination of yeast cells were determined by microscopic analysis and measurement of absorbance at 600 nm with a microtiter plate reader (FLUOstar OPTIMA; BMG Labtech) after 24 and 48 hours. Minimal inhibitory concentration (MIC) was determined as the lowest concentration of the peptide at which there was no visible and measurable growth after 24 hours of incubation. To determine whether the antifungal effect was fungistatic or fungicidal, 10 μL from each treatment was dropped onto solid YPD plate after 3 and 24 hours. Plates were incubated at 30°C for 48 hours and developing colonies were observed. Minimal fungicidal concentration (MFC) was defined where no fungal growth could be observed.

[1] = test system: C. albicans strains WO-1 and Sc 5314; experiment: Microdilution antifungal assay, summary for C. albicans; assay type: cell-based, Candida albicans; conditions: for Anticandidal activity against the yeast form of growing C. albicans: strains WO-1 and Sc 5314, LSM medium, microdilution plate assay
Method: as §1

[2] = test system: PK E6/E7 vaginal epithelial cells; experiment: MTT assay, cytotoxicity on human epithelial cells; assay type: cell-based; conditions: 10 μg/mL, MTT assay, cytotoxic control
Method: The immortalized human vaginal epithelial cell line PK E6/E7 [15] was cultured in serum-free CKM supplemented with 0.005 μg/mL recombinant epidermal growth factor, 50 μg/mL bovine pituitary extract, L-glutamine, and antibiotic/antimycotic solution (Life Technologies) in a CO2 thermostat at 37°C [16]. Cells at 60–70% confluence were used in subsequent experiments.
MTT Assay. PK E6/E7 vaginal epithelial cells were seeded in the wells of a 96-well plate at a density of 1 × 10^4 cells per well in a final volume of 100 μL. CKM was then aspirated and 100 μL of the appropriate peptide diluted in PBgluc was added. After 3 hours of incubation at 37°C, the peptide solution was removed, and the cells were let to regenerate in CKM for 24 hours. Then 5 mg/mL 3-[4,5-dimethylthiazol-2-yl]-2,5-diphenyltetrazolium bromide (MTT) was added to each well and the plate was placed to 37°C for 4 hours. The amount of formazan formed by the activity of the mitochondrial succinate dehydrogenase of living cells was measured by using a microtiter plate reader (FLUOstar OPTIMA) at the wavelength of 560 nm.
10 μg/mL of primycin, a macrolide lactone antibiotic complex that rapidly kills PK cells, was used as a control for cytotoxicity in both assays.
MTT assays and impedance measurements were performed in at least four technical parallels and two biological replicates; all the data are presented as mean ± standard deviation. Significance was calculated with Newman-Keuls post hoc test using the GraphPad Prism version 5 for Windows and a probability (P) value of less than 0.05 was considered significant.

Compound	Minimal fungicidal concentration, 3 h (C. albicans WO-1)	Minimal fungicidal concentration, 24 h (C. albicans WO-1)	Anticandidal activity against the yeast form of growing C. albicans [1]	MIC ([1]; Candida albicans, SC5314, comparator value given in text, strain, method and source not given, read-out: MIC of amphotericin B)	MIC of amphotericin B ([1]; comparator value given in text, strain, method and source not given)	Efficiency of killing epithelial cells [2]
CC[C@H](C)[C@H](NC(=O)[C@H](Cc1ccc(O)cc1)NC(=O)[C@H](CC(N)=O)NC(=O)[C@H](CCCNC(=N)N)NC(=O)[C@@H](NC(=O)[C@H](CCC(N)=O)NC(=O)[C@H](CCCNC(=N)N)NC(=O)[C@H](CS)NC(=O)[C@H](CC(=O)O)NC(=O)[C@H](CCCCN)NC(=O)[C@H](CC(N)=O)NC(=O)[C@@H](NC(=O)[C@@H](NC(=O)[C@H](CS)NC(=O)[C@H](CC(N)=O)NC(=O)[C@H](CCCNC(=N)N)NC(=O)[C@H](CO)NC(=O)[C@@H](NC(=O)[C@@H]1CCCN1C(=O)[C@H](CC(C)C)NC(=O)[C@H](Cc1ccccc1)NC(=O)[C@H](C)N)[C@@H](C)O)[C@@H](C)CC)[C@@H](C)O)C(C)C)C(=O)N[C@@H](C)C(=O)N[C@@H](CCCNC(=N)N)C(=O)N[C@@H](CS)C(=O)N[C@@H](CCCNC(=N)N)C(=O)N[C@@H](CCCCN)C(=O)NCC(=O)N[C@@H](CCC(N)=O)C(=O)N[C@@H](CS)C(=O)N[C@@H](CC(C)C)C(=O)N[C@@H](CCC(N)=O)C(=O)N[C@@H](CO)C(=O)N1CCC[C@H]1C(=O)N[C@H](C(=O)N[C@@H](CCCNC(=N)N)C(=O)O)C(C)C [NCR030] (H-AFLPTSRNCITNKDCRQVRNYIARCRKGQCLQSPVR-OH; N-terminus and C-terminus assumed)	12.5 (±2) μg/mL	16.5 (±5) μg/mL	exhibited anticandidal activity			
CC[C@H](C)[C@H](NC(=O)[C@H](CCCNC(=N)N)NC(=O)[C@H](CCCNC(=N)N)NC(=O)[C@H](CCCNC(=N)N)NC(=O)[C@@H](NC(=O)[C@H](CS)NC(=O)[C@H](Cc1ccc(O)cc1)NC(=O)CNC(=O)[C@H](CCCCN)NC(=O)[C@H](CCCNC(=N)N)NC(=O)[C@H](CS)NC(=O)[C@H](CCCNC(=N)N)NC(=O)[C@H](C)NC(=O)[C@H](CCCNC(=N)N)NC(=O)[C@H](Cc1ccc(O)cc1)NC(=O)[C@H](CC(N)=O)NC(=O)[C@H](CCCCN)NC(=O)[C@@H](NC(=O)[C@@H](NC(=O)[C@H](CO)NC(=O)[C@H](CS)NC(=O)[C@H](CCC(=O)O)NC(=O)[C@H](CCCCN)NC(=O)[C@H](CC(=O)O)NC(=O)[C@H](CO)NC(=O)[C@@H](NC(=O)[C@H](CS)NC(=O)[C@@H]1CCCN1C(=O)[C@H](CCCCN)NC(=O)[C@H](CO)NC(=O)[C@H](CC(C)C)NC(=O)[C@H](CCC(N)=O)NC(=O)[C@@H](NC(=O)[C@H](Cc1ccccc1)NC(=O)[C@H](C)N)[C@@H](C)CC)[C@@H](C)CC)[C@@H](C)CC)C(C)C)C(C)C)C(=O)N[C@@H](CCCNC(=N)N)C(=O)O [NCR044] (H-AFIQLSKPCISDKECSIVKNYRARCRKGYCVRRRIR-OH; N-terminus and C-terminus assumed)	11 (±2) μg/mL	6.25 (±1) μg/mL	exhibited anticandidal activity			
CC[C@H](C)[C@H](NC(=O)[C@H](CC(N)=O)NC(=O)[C@H](Cc1c[nH]cn1)NC(=O)[C@@H]1CCCN1C(=O)[C@@H]1CCCN1C(=O)[C@H](CCSC)NC(=O)[C@H](CCCNC(=N)N)NC(=O)[C@@H]1CCCN1C(=O)[C@H](CS)NC(=O)[C@H](CC(=O)O)NC(=O)[C@H](CCCCN)NC(=O)[C@H](CC(=O)O)NC(=O)[C@@H](NC(=O)[C@H](CC(C)C)NC(=O)[C@H](CS)NC(=O)[C@@H]1CCCN1C(=O)[C@H](CCCNC(=N)N)NC(=O)[C@H](CC(C)C)NC(=O)[C@@H](NC(=O)[C@@H](N)CCSC)[C@@H](C)O)[C@@H](C)O)C(=O)N[C@@H](CCCCN)C(=O)N[C@@H](CS)C(=O)N[C@@H](CCCNC(=N)N)C(=O)N[C@@H](CCCCN)C(=O)NCC(=O)N[C@@H](Cc1c[nH]cn1)C(=O)N[C@@H](CS)C(=O)N[C@H](C(=O)N1CCC[C@H]1C(=O)N[C@H](C(=O)NCC(=O)N[C@@H](CCCCN)C(=O)N1CCC[C@H]1C(=O)N[C@@H](Cc1ccccc1)C(=O)N[C@@H](CCCCN)C(=O)O)[C@@H](C)CC)C(C)C [NCR137] (H-MTLRPCLTDKDCPRMPPHNIKCRKGHCVPIGKPFK-OH; N-terminus and C-terminus assumed)	20 (±2.5) μg/mL	25 (±3) μg/mL	exhibited anticandidal activity			
CC[C@H](C)[C@H](N)C(=O)N[C@@H](Cc1ccc(O)cc1)C(=O)N[C@@H](Cc1ccccc1)C(=O)N1CCC[C@H]1C(=O)N[C@H](C(=O)N[C@@H](CO)C(=O)N[C@@H](CCCNC(=N)N)C(=O)N1CCC[C@H]1C(=O)N[C@@H](CS)C(=O)N[C@H](C(=O)N[C@H](C(=O)N[C@@H](CC(=O)O)C(=O)N[C@@H](CCCCN)C(=O)N[C@@H](CC(=O)O)C(=O)N[C@@H](CS)C(=O)N1CCC[C@H]1C(=O)N[C@@H](CC(N)=O)C(=O)N[C@@H](CCSC)C(=O)N[C@@H](CCCCN)C(=O)N[C@@H](Cc1c[nH]cn1)C(=O)N[C@@H](Cc1ccc(O)cc1)C(=O)N[C@@H](CCCCN)C(=O)N[C@@H](C)C(=O)N[C@@H](CCCCN)C(=O)N[C@@H](CS)C(=O)N[C@@H](CCCNC(=N)N)C(=O)N[C@@H](CCCCN)C(=O)NCC(=O)N[C@@H](Cc1ccccc1)C(=O)N[C@@H](CS)C(=O)N[C@H](C(=O)N[C@@H](CO)C(=O)N[C@@H](CO)C(=O)N[C@@H](CCCNC(=N)N)C(=O)N[C@H](C(=O)N[C@@H](CCCNC(=N)N)C(=O)O)C(C)C)[C@@H](C)CC)[C@@H](C)O)[C@@H](C)CC)C(C)C [NCR147] (H-IYFPVSRPCITDKDCPNMKHYKAKCRKGFCISSRVR-OH; N-terminus and C-terminus assumed)	8 (±6.5) μg/mL	9 (±4) μg/mL	exhibited anticandidal activity			
CSCC[C@H](NC(=O)[C@H](Cc1ccccc1)NC(=O)[C@H](CCCCN)NC(=O)[C@@H]1CCCN1C(=O)[C@H](CS)NC(=O)[C@H](CCCNC(=N)N)NC(=O)CNC(=O)[C@H](CC(=O)O)NC(=O)[C@H](CCCNC(=N)N)NC(=O)CNC(=O)[C@H](CS)NC(=O)[C@H](CC(C)C)NC(=O)[C@@H](NC(=O)[C@H](CCCNC(=N)N)NC(=O)[C@@H](N)CCSC)C(C)C)C(=O)N[C@@H](CS)C(=O)N[C@@H](CCCNC(=N)N)C(=O)N[C@H](C(=O)N[C@@H](Cc1ccccc1)C(=O)N[C@@H](CC(C)C)C(=O)O)[C@@H](C)O [NCR280] (H-MRVLCGRDGRCPKFMCRTFL-OH)	10 (±2) μg/mL	8 (±3) μg/mL				
C[C@@H]1[C@H](O)[C@@H](C)/C=C/C=C/C=C/C=C/C=C/C=C/C=C/[C@H](O[C@@H]2O[C@H](C)[C@@H](O)[C@H](N)[C@@H]2O)C[C@@H]2O[C@](O)(C[C@@H](O)C[C@@H](O)[C@H](O)CC[C@@H](O)C[C@@H](O)CC(=O)O[C@H]1C)C[C@H](O)[C@H]2C(=O)O [amphotericin B, reference compound]				1.69 µM	~ 1.7 μM	
ITISNSSFGRIVYWNCKTDKDCKQHRGFNFRCRSGNCIPIRR (cysteines drawn unpaired) [NCR183]	16.5 (±12) μg/mL	15.5 (±13) μg/mL	exhibited anticandidal activity			
primycin [reference compound]						about 90%
